{"source": "patent US20030059338A1", "about": "“Methods for sterilizing biological materials using flavonoid/flavonol stabilizers” (priority 2001, published 2003)", "key": {"[1]": {"tested_on": "anti-insulin monoclonal immunoglobulin", "test": "ELISA activity of freeze-dried anti-insulin monoclonal immunoglobulin after gamma irradiation with stabilizer (Example 1)", "assay_type": "binding", "settings": "freeze-dried anti-insulin mAb + 1% BSA, irradiated to 45 kGy at 1.83 kGy/hr, 4° C.; diosmin 39.3 mM or silymarin 246 mM", "description": "Samples were prepared by combining anti-insulin monoclonal antibody ([…] of 2 mg/ml solution) and either diosmin (39.3 mM; Sigma cat# D3525 lot 125H0831) or silymarin (246 mM; Aldrich cat #24592-4) in 3 ml glass vials with 13 mm stoppers. Samples were freeze-dried for approximately 64 hours and stoppered under vacuum and sealed with an aluminum, crimped seal. Samples were irradiated at a dose rate of 1.83 kGy/hr to a total dose of 45 kGy at 4° C. Monoclonal immunoglobulin activity was determined by a standard ELISA protocol. Maxisorp plates were coated with human recombinant insulin at […] overnight at 4° C. The plate was blocked with […] of blocking buffer (PBS, pH 7.4, 2% BSA) for two hours at 37° C. and then washed six times with wash buffer (TBS, pH 7, 0.05% TWEEN 20). Samples were re-suspended in […] of high purity water (100 ng/ml), diluted to 5 Fg/ml in a 300 Fl U-bottomed plate coated for either overnight or two hours with blocking buffer. Serial 3-fold dilutions were performed, with a final concentration of […]. Plates were incubated for one hour at 37° C. with agitation and then washed six times with a wash buffer. Phosphatase-labelled goat anti-mouse IgG (H+L) was diluted to 50 ng/ml in binding buffer and […] was added to each well. […] The plate was read on a Multiskan MCC/340 at 405 nm with the background absorbance at 620 nm subtracted."}, "thrombin": {"tested_on": "thrombin", "test": "Thrombin clotting activity (chromagenic) of lyophilized thrombin after gamma irradiation with stabilizer (Example 3)", "assay_type": "biochemical", "settings": "lyophilized thrombin + 10% BSA, 48.5-51.2 kGy at 1.846-1.949 kGy/hr, 4° C.; epicatechin 200 mM, purpurogallin 1M, biacalein 50 mM", "description": "Samples of thrombin (100 NIH units, 1 ml), alone or in the presence of epicatechin (200 mM) or purpurogallin (1M, Aldrich) or biacalein (50 mM; Aldrich), and 10% bovine serum albumin, were prepared and lyophilized. Lyophilized samples were gamma irradiated to 48.5-51.2 kGy at a dose rate of 1.846-1.949 kGy/hr at 4° C. All samples were then assayed for clotting activity by conventional chromagenic methodology."}}}
{"smiles": "COc1ccc(-c2cc(=O)c3c(O)cc(O[C@@H]4O[C@H](CO[C@@H]5O[C@@H](C)[C@H](O)[C@@H](O)[C@H]5O)[C@@H](O)[C@H](O)[C@H]4O)cc3o2)cc1O", "note": "[diosmin]", "values": [{"measurement": "recovery of activity", "setting": "[1]", "value": "~62", "unit": "%"}]}
{"smiles": "O=c1cc(-c2ccccc2)oc2cc(O)c(O)c(O)c12", "note": "[biacalein]", "values": [{"measurement": "thrombin activity retained following gamma irradiation", "setting": "thrombin", "value": "about 57%"}]}
{"smiles": "O=c1c(O)cccc2cc(O)c(O)c(O)c12", "note": "[purpurogallin]", "values": [{"measurement": "thrombin activity retained following gamma irradiation", "setting": "thrombin", "value": "over 90%"}]}
